Assays:
[1] = target: T1, HOP-(1-543), full-length human HSP70/HSP90-organizing protein (Homo sapiens, UniProt P31948); experiment: protection from TPCK-trypsin digestion, SDS-PAGE; assay type: binding; settings: 25 mM HEPES-KOH pH 7.4, 5 mM MgCl2, 100 mM KCl, 37 °C, 30 min
T1 construct: gene STIP1; full-length 1-543, His6-tagged (pCold I), E. coli BL21, Ni-NTA and Superdex 200; monomer

[2] = target: T2, HOP-(1-543), full-length human HSP70/HSP90-organizing protein (Homo sapiens, UniProt P31948, D186A); experiment: ATP hydrolysis rate versus ATP concentration; assay type: biochemical; settings: 25 mM HEPES-KOH pH 7.4, 5 mM MgCl2, 50 mM KCl, 37 °C
T2 construct: gene STIP1; full-length 1-543, His6-tagged (pCold I), E. coli BL21, Ni-NTA and Superdex 200; monomer
T2 sequence (P31948 whole entry D186A): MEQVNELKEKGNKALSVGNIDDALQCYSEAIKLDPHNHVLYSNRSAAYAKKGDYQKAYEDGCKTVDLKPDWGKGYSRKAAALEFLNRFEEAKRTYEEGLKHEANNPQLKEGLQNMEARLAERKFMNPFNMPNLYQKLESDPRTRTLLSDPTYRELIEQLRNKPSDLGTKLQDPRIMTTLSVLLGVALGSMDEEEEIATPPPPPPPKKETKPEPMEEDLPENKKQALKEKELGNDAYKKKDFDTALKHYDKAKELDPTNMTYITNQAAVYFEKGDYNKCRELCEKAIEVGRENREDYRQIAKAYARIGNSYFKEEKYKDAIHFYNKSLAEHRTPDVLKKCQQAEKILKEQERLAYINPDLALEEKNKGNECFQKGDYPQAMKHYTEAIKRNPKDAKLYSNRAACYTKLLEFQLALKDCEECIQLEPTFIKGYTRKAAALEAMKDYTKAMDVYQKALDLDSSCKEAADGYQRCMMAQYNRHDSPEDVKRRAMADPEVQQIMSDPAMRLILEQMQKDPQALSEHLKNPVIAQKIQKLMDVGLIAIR

[3] = target: T1, HOP-(1-543), full-length human HSP70/HSP90-organizing protein; experiment: 1H NMR titration (ATP H2/H8 shifts), non-linear fit; assay type: binding
[4] = target: T3, HOP-(1-359), TPR1-TPR2A (ATPase domain) (Homo sapiens, UniProt P31948); experiment: 1H NMR chemical shift change (protein amide region); assay type: binding; settings: 20 mM potassium phosphate pH 6.5, 50 mM KCl, 5 mM MgCl2, 25 °C, 10-fold molar excess ATP
T3 construct: gene STIP1; TPR1-DP1-TPR2A segment, residues 1-359, His6-tagged (pCold I), E. coli BL21
T3 sequence (P31948 1-359): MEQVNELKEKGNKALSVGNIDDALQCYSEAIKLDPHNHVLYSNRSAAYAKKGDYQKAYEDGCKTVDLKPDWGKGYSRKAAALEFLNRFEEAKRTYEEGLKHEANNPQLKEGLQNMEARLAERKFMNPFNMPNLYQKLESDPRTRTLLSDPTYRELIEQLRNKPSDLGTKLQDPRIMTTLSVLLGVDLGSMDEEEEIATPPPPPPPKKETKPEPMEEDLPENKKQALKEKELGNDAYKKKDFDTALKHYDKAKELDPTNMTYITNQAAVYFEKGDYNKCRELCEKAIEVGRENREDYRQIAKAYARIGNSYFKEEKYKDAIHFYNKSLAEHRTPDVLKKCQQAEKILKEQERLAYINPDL

T1 sequence (P31948 whole entry): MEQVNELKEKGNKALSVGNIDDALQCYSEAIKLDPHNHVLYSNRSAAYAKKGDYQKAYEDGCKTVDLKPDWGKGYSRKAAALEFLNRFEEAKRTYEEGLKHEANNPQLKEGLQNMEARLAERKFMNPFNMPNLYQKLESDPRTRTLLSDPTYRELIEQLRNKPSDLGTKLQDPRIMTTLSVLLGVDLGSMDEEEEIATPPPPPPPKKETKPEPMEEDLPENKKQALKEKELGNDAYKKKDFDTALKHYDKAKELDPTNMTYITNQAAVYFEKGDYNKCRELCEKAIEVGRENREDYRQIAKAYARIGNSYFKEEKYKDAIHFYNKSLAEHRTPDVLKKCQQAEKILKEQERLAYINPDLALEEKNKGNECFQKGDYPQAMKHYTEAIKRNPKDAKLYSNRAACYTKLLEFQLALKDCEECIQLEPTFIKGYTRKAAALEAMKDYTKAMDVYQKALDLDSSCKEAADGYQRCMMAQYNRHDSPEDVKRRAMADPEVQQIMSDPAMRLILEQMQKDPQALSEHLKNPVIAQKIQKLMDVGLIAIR

SMILES | protection efficiency at 5 mM [1] [%] | ATP hydrolysis rate versus ATP concentration [2] | Kd [3] [µM] | 1H NMR chemical shift change (protein amide region) [4]
Nc1ncnc2c1ncn2[C@@H]1O[C@H](COP(=O)(O)OP(=O)(O)O)[C@@H](O)[C@H]1O [ADP] | 31.0 ± 8.9 |  |  | 
Nc1ncnc2c1ncn2[C@@H]1O[C@H](COP(=O)(O)OP(=O)(O)NP(=O)(O)O)[C@@H](O)[C@H]1O [AMP-PNP, adenosine 5′-(β,γ-imino)triphosphate] | 28.6 ± 10.1 |  |  | 
Nc1ncnc2c1ncn2[C@@H]1O[C@H](COP(=O)(O)OP(=O)(O)OP(=O)(O)O)[C@@H](O)[C@H]1O [ATP] |  | this mutation caused no significant change in ATPase activity | 350 | These data indicated that ATP directly binds the ATPase domain of HOP

Source: article PMC3975032, “ATPase Activity and ATP-dependent Conformational Change in the Co-chaperone HSP70/HSP90-organizing Protein (HOP)” (The Journal of Biological Chemistry, 2014)
